Test results: ChEMBL document CHEMBL1201862, “PubChem BioAssay data set” (2004)
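96-well plates; 48 h exposure; 5 concentrations. Endpoints by linear interpolation between flanking doses. Not reached: highest tested concentration assigned. At the GI50, growth is halved.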 Active and inactive are the calls of the source. No stated cut-off is given here; in the data, active = GI50 up to about 1.1 µM and inactive = higher.

Columns and labels:
Assay in all cases: growth of human tumour cells (NCI), 48 h
[1] = tested on: HCT-15
[2] = tested on: Malme-3M
[3] = tested on: SK-OV-3
[4] = tested on: RPMI-8226
[5] = tested on: SNB-19
[6] = tested on: SF-295
[7] = tested on: SF-268
[8] = tested on: 786-0
[9] = tested on: NCI-H23
[10] = tested on: HL-60
[11] = tested on: HOP-62
[12] = tested on: EKVX
[13] = tested on: NCI-H226
[14] = tested on: HCT-116
[15] = tested on: SW-620
[16] = tested on: RXF 393

Structure (SMILES)	GI50 [1] [µM]	GI50 [2]	GI50 [3]	GI50 [4]	GI50 [5]	GI50 [6]	GI50 [7]	GI50 [8]	GI50 [9]	GI50 [10]	GI50 [11]	GI50 [12]	GI50 [13]	GI50 [14]	GI50 [15]	GI50 [16]
COc1cc(OC)cc(-c2cc(O)c3cc4c(cc3n2)OCO4)c1	0.263	0.426 µM (active)	0.27 µM (active)	0.389 µM (active)	0.8 µM (active)	0.2 µM (active)	0.54 µM (active)	0.348 µM (active)	0.351 µM (active)	0.162 µM (active)	0.486 µM (active)	12.6 µM (inactive)	0.251 µM (active)	0.169 µM (active)	0.203 µM (active)	
CCP(C)(C)=O	> 100	> 100 µM (inactive)	> 100 µM (inactive)	> 100 µM (inactive)	> 100 µM (inactive)	> 100 µM (inactive)	> 100 µM (inactive)	> 100 µM (inactive)	> 100 µM (inactive)		> 100 µM (inactive)	> 100 µM (inactive)			> 100 µM (inactive)	> 100 µM (inactive)
COC(=O)C1=C(c2ccc3c(c2)OCO3)O[C@H](c2ccc3c(c2)OCO3)[C@H]1COC(C)=O	53.1	53.2 µM (inactive)	41 µM (inactive)	60.4 µM (inactive)		34.4 µM (inactive)	87.5 µM (inactive)	36.2 µM (inactive)	37.3 µM (inactive)	21.8 µM (inactive)	58.5 µM (inactive)	59 µM (inactive)	39 µM (inactive)	51.5 µM (inactive)	> 100 µM (inactive)	40 µM (inactive)
O=c1[c-](-c2ccccc2)[se]c(-c2ccccc2)[n+]1-c1ccccc1	13.2	15.5 µM (inactive)	24.2 µM (inactive)	29.1 µM (inactive)	7.52 µM (inactive)	3.61 µM (inactive)	5.55 µM (inactive)	10.5 µM (inactive)	11.8 µM (inactive)	1.53 µM (inactive)		13.5 µM (inactive)	3.13 µM (inactive)	3.51 µM (inactive)	12.5 µM (inactive)	3.18 µM (inactive)
COC(=O)Cc1cc(OC)c(OC)cc1Br		> 100 µM (inactive)	> 100 µM (inactive)	> 100 µM (inactive)	> 100 µM (inactive)	> 100 µM (inactive)	> 100 µM (inactive)	> 100 µM (inactive)	> 100 µM (inactive)	> 100 µM (inactive)	> 100 µM (inactive)	> 100 µM (inactive)	> 100 µM (inactive)	> 100 µM (inactive)	> 100 µM (inactive)	
CC(C)(C)c1cc(CCC(=O)Nc2ccc(Cl)cc2)nc(NC#N)n1	> 100		> 100 µM (inactive)		> 100 µM (inactive)	> 100 µM (inactive)	> 100 µM (inactive)	> 100 µM (inactive)	> 100 µM (inactive)	> 100 µM (inactive)	> 100 µM (inactive)	> 100 µM (inactive)	> 100 µM (inactive)	> 100 µM (inactive)	> 100 µM (inactive)	
NC1=NS(=O)(=O)Nc2[nH]c(-c3ccccc3)nc21	> 100	> 100 µM (inactive)	> 100 µM (inactive)	> 100 µM (inactive)	> 100 µM (inactive)	> 100 µM (inactive)	> 100 µM (inactive)	> 100 µM (inactive)	> 100 µM (inactive)	> 100 µM (inactive)		> 100 µM (inactive)	> 100 µM (inactive)	> 100 µM (inactive)	> 100 µM (inactive)	> 100 µM (inactive)
C[N+](C)(C)CC(=O)N/N=C/c1oc(-c2cccc([N+](=O)[O-])c2)c(-c2cccc([N+](=O)[O-])c2)c1[N+](=O)[O-]		> 100 µM (inactive)	> 100 µM (inactive)	21.7 µM (inactive)	85.9 µM (inactive)		> 100 µM (inactive)	48.1 µM (inactive)	> 100 µM (inactive)	42.3 µM (inactive)	> 100 µM (inactive)	> 100 µM (inactive)		32.7 µM (inactive)	31.3 µM (inactive)	76.9 µM (inactive)
CC(=O)c1c(P(=O)(OC(C)C)OC(C)C)nn(-c2ccc([N+](=O)[O-])cc2)c1C	> 100	> 100 µM (inactive)	> 100 µM (inactive)	> 100 µM (inactive)	> 100 µM (inactive)	> 100 µM (inactive)	> 100 µM (inactive)		> 100 µM (inactive)	> 100 µM (inactive)	> 100 µM (inactive)	> 100 µM (inactive)		> 100 µM (inactive)	> 100 µM (inactive)	
CSc1s[s+]c(SC)c1[O-]	32.9	16.6 µM (inactive)	> 100 µM (inactive)		> 100 µM (inactive)	47.9 µM (inactive)	20.9 µM (inactive)	16.5 µM (inactive)	20.5 µM (inactive)	17.4 µM (inactive)	> 100 µM (inactive)	75.7 µM (inactive)	> 100 µM (inactive)	17.1 µM (inactive)	17.8 µM (inactive)	21.2 µM (inactive)
Cc1cc2c(cc1C)[n+]([O-])c(C(=O)C/C(=N/NC(=O)CC#N)C(=O)Nc1ccccc1C(F)(F)F)c(C)[n+]2[O-]	36.6	3.56 µM (inactive)	> 100 µM (inactive)		75 µM (inactive)	95.7 µM (inactive)	39.9 µM (inactive)	52.8 µM (inactive)	91.4 µM (inactive)	24.3 µM (inactive)	> 100 µM (inactive)	53.1 µM (inactive)	26.9 µM (inactive)	4.05 µM (inactive)	50.6 µM (inactive)	77.1 µM (inactive)
N#CCc1ccc(/C(C#N)=C2/OC(=N)C(c3ccc(CC#N)cc3)C2=O)cc1 (stereo not drawn)	> 100	> 100 µM (inactive)	> 100 µM (inactive)	> 100 µM (inactive)	> 100 µM (inactive)	> 100 µM (inactive)	> 100 µM (inactive)	> 100 µM (inactive)	> 100 µM (inactive)	> 100 µM (inactive)	> 100 µM (inactive)	> 100 µM (inactive)	> 100 µM (inactive)	> 100 µM (inactive)	> 100 µM (inactive)	> 100 µM (inactive)
O=C(O)/C(=C/c1ccccc1[N+](=O)[O-])c1ccccc1	> 100		> 100 µM (inactive)	> 100 µM (inactive)	> 100 µM (inactive)	> 100 µM (inactive)	> 100 µM (inactive)	> 100 µM (inactive)	> 100 µM (inactive)	> 100 µM (inactive)	> 100 µM (inactive)	> 100 µM (inactive)	> 100 µM (inactive)	> 100 µM (inactive)	> 100 µM (inactive)	
O=C1C=C(Nc2ccc(Br)cc2)c2ccccc2C1=O	5.26	15.1 µM (inactive)	16.8 µM (inactive)	6.73 µM (inactive)	15.6 µM (inactive)	15.8 µM (inactive)	13.5 µM (inactive)	14.6 µM (inactive)	3.33 µM (inactive)	4.51 µM (inactive)	16.9 µM (inactive)	18.5 µM (inactive)	18.7 µM (inactive)	13.6 µM (inactive)	12.9 µM (inactive)	16.7 µM (inactive)
CC(C)N(C(=O)C12C3C4C1C1C2C3C41C(=O)O)C(C)C (stereo not drawn)	> 100	> 100 µM (inactive)	> 100 µM (inactive)	> 100 µM (inactive)	> 100 µM (inactive)	> 100 µM (inactive)	> 100 µM (inactive)	> 100 µM (inactive)	> 100 µM (inactive)	> 100 µM (inactive)	> 100 µM (inactive)	> 100 µM (inactive)	> 100 µM (inactive)	> 100 µM (inactive)	> 100 µM (inactive)	
O=C(Nc1ccc(Cl)cc1Cl)OC(Cn1cncn1)c1ccc(Cl)cc1Cl (stereo not drawn)	16.6	15 µM (inactive)	18.3 µM (inactive)	94.6 µM (inactive)	16.9 µM (inactive)	17.4 µM (inactive)	17.1 µM (inactive)	19 µM (inactive)	14.6 µM (inactive)	44 µM (inactive)	19.5 µM (inactive)	16 µM (inactive)	19.7 µM (inactive)	14.1 µM (inactive)	16.7 µM (inactive)	16.9 µM (inactive)
Cc1cccc2nc3cccc(C(=O)NCCN(C)C)c3nc12	0.442		0.574 µM (active)		0.525 µM (active)	0.643 µM (active)	0.885 µM (active)	0.647 µM (active)	0.541 µM (active)	0.461 µM (active)	0.247 µM (active)	0.443 µM (active)	1.04 µM (active)	0.293 µM (active)	0.272 µM (active)	1.03 µM (active)
NC1=NN(c2ccccc2)C(=O)C1/C(=N\NC(=O)c1cc2ccccc2cc1O)C(=O)Nc1ccc(Cl)c(Cl)c1 (stereo not drawn)	13.6	33 µM (inactive)		26 µM (inactive)	25.4 µM (inactive)	35.8 µM (inactive)	22.9 µM (inactive)	31.3 µM (inactive)	28.9 µM (inactive)	5.13 µM (inactive)	65.2 µM (inactive)	14.4 µM (inactive)	64.9 µM (inactive)	35.2 µM (inactive)	33.1 µM (inactive)	49.2 µM (inactive)
CC(=O)Nc1ccc(Cl)c(Cl)c1	> 100	> 100 µM (inactive)	> 100 µM (inactive)	> 100 µM (inactive)	> 100 µM (inactive)	> 100 µM (inactive)	> 100 µM (inactive)	> 100 µM (inactive)	> 100 µM (inactive)	> 10 µM (inactive)	> 100 µM (inactive)	> 100 µM (inactive)	> 100 µM (inactive)	> 100 µM (inactive)	> 100 µM (inactive)	> 100 µM (inactive)
